Data taken from patent publication US8003695B2 (Chroma Therapeutics Ltd., priority 2006, dated 2011).

Experiments:
THP-1 cells = experiment: LPS-Stimulation of THP-1 Cells, TNF-α release; assay type: cell-based; settings: Homo sapiens, LPS 1 μg/ml, 6 hrs, read-out: Inhibitor activity versus THP-1 TNFα release
Experimental: LPS-Stimulation of THP-1 Cells
THP-1 cells were plated in 100 μl at a density of 4×10^4 cells/well in V-bottomed 96 well tissue culture treated plates and incubated at 37° C. in 5% CO2 for 16 hrs. 2 hrs after the addition of the inhibitor in 100 μl of tissue culture media, the cells were stimulated with LPS (E. coli strain 005:85, Sigma) at a final concentration of 1 μg/ml and incubated at 37° C. in 5% CO2 for 6 hrs. TNF-α levels were measured from cell-free supernatants by sandwich ELISA (R&D Systems #QTA00B)

IKBKB (IKKβ) = target: T1, IKBKB (IKKβ) (Homo sapiens, UniProt O14920); experiment: IKKβ Enzyme Assay (Z'-LYTE, Invitrogen); assay type: biochemical; settings: ATP at or close to Km; read-out: Inhibitor activity versus IKKβ
T1 construct: purchased Invitrogen (Paisley, UK)
T1 sequence (O14920 1-756): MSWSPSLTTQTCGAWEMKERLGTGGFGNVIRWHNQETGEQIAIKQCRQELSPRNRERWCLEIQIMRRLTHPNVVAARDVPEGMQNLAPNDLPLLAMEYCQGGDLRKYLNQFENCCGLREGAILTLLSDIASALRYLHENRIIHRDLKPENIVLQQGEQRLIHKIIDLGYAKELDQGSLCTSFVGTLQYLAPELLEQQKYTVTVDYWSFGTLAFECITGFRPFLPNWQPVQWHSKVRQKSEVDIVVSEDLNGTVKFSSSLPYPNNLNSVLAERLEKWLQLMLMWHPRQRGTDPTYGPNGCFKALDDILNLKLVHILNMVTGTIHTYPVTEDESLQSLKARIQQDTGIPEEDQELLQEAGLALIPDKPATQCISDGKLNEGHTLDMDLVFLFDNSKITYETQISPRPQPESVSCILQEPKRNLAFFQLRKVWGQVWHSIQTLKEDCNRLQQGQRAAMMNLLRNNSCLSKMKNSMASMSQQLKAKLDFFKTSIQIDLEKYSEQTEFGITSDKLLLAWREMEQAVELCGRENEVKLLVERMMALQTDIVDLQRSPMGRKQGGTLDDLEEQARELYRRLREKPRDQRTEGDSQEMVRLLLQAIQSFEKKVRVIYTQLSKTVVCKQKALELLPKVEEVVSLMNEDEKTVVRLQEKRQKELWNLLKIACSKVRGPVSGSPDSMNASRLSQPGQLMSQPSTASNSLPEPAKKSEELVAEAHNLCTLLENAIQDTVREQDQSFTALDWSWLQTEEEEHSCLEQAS
Experimental: The ability of compounds to inhibit IKKβ kinase activity was measured in an assay performed by Invitrogen (Paisley, UK). The Z′-LYTE™ biochemical assay employs a fluorescence-based, coupled-enzyme format and is based on the differential sensitivity of phosphorylated and non-phosphorylated peptides to proteolytic cleavage. The peptide substrate is labelled with two fluorophores—one at each end—that make up a FRET pair. In the primary reaction, the kinase transfers the gamma-phosphate of ATP to a single serine or threonine residue in a synthetic FRET-peptide. In the secondary reaction, a site-specific protease recognizes and cleaves non-phosphorylated FRET-peptides. Phosphorylation of FRET-peptides suppresses cleavage by the Development Reagent. Cleavage disrupts FRET between the donor (i.e., coumarin) and acceptor (i.e. fluorescein) fluorophores on the FRET-peptide, whereas uncleaved, phosphorylated FRET-peptides maintain FRET. A […] method, which calculates the ratio (the Emission Ratio) of donor emission to acceptor emission after excitation of the donor fluorophore at 400 nm, is used to quantitate reaction progress.
The final 10 μL Kinase Reaction consists of 0.9-8.0 ng IKBKB (IKKβ), 2 μM Ser/Thr 05 Peptide and ATP in 50 mM HEPES pH 7.5, 0.01% BRIJ-35, 10 mM MgCl2, 1 mM EGTA. The assay is performed at an ATP concentration at, or close to the Km. After the 60 minute Kinase Reaction incubation at room temperature, 5 μL of a 1:128 dilution of Development Reagent is added. The assay plate is incubated for a further 60 minutes at room temperature and read on a fluorescence plate reader.
Duplicate data points are generated from a ⅓ log dilution series of a stock solution of test compound in DMSO. Nine dilutions steps are made from a top concentration of 10 μM, and a ‘no compound’ blank is included. Data is collected and analysed using XLfit software from IDBS. The dose response curve is curve fitted to model number 205 (sigmoidal dose-response model). From the curve generated, the concentration giving 50% inhibition is determined and reported.

SMILES | IC50 (THP-1 cells) | IC50 (IKBKB (IKKβ))
CC(C)C[C@H](NCCCCCOc1ccc(-c2cc(C(N)=O)c(NC(N)=O)s2)cc1)C(=O)OC1CCCC1 [Example 27, Cyclopentyl N-(5-{4-[4-carbamoyl-5-(carbamoylamino)-2-thienyl]phenoxy}pentyl)-L-leucinate] | 1 to 5 µM | < 1 µM
CC(C)C[C@H](NCCc1ccc(-c2cc(C(N)=O)c(NC(N)=O)s2)c(Cl)c1)C(=O)OC1CCCC1 [Example 17, Cyclopentyl N-(2-{4-[4-carbamoyl-5-(carbamoylamino)-2-thienyl]-3-chlorophenyl}ethyl)-L-leucinate] | > 5 µM | 1 to 5 µM
CC(C)C[C@H](NCCCCCOc1ccc(-c2cc(C(N)=O)c(NC(N)=O)s2)c(Cl)c1)C(=O)OC1CCCC1 [Example 28, Cyclopentyl N-(5-{4-[4-carbamoyl-5-(carbamoylamino)-2-thienyl]-3-chlorophenoxy}pentyl)-L-leucinate] | 1 to 5 µM | > 5 µM
CC(C)C[C@H](NCCc1ccc(-c2cc(C(N)=O)c(NC(N)=O)s2)cc1)C(=O)OC1CCCC1 [Example 16, Cyclopentyl N-(2-{4-[4-carbamoyl-5-(carbamoylamino)-2-thienyl]phenyl}ethyl)-L-leucinate] | 1 to 5 µM | 1 to 5 µM
NC(=O)Nc1sc(-c2ccc(CN[C@@H](Cc3ccccc3)C(=O)OC3CCCC3)cc2)cc1C(N)=O [Example 3, Cyclopentyl N-{-4-[4-carbamoyl-5-(carbamoylamino)-2-thienyl]benzyl}-L-phenylalaninate] | > 5 µM | > 5 µM
CC(C)C[C@H](NC/C=C/c1ccc(-c2cc(C(N)=O)c(NC(N)=O)s2)cc1C(F)(F)F)C(=O)OC1CCCC1 [Example 36, Cyclopentyl N-[(2E)-3-{4-[4-carbamoyl-5-(carbamoylamino)thiophen-2-yl]-2-(trifluoromethyl)phenyl}prop-2-en-1-yl]-L-leucinate] | > 5 µM | 1 to 5 µM
CC(C)C[C@H](NC/C=C/c1cc(F)c(-c2cc(C(N)=O)c(NC(N)=O)s2)cc1F)C(=O)OC1CCCC1 [Example 37, Cyclopentyl N-[(2E)-3-{4-[4-carbamoyl-5-(carbamoylamino)thiophen-2-yl]-2,5-difluorophenyl}prop-2-en-1-yl]-L-leucinate] | 1 to 5 µM | 1 to 5 µM
CC(C)C[C@H](NCc1ccc(-c2cc(C(N)=O)c(NC(N)=O)s2)c(Cl)c1)C(=O)OC1CCCC1 [Example 6, Cyclopentyl N-{-4-[4-carbamoyl-5-(carbamoylamino)-2-thienyl]-3-chlorobenzyl}-L-leucinate] | > 5 µM | < 1 µM
NC(=O)Nc1sc(-c2ccc(CN[C@H](C(=O)OC3CCCC3)c3ccc4ccccc4c3)cc2)cc1C(N)=O [Example 5, Cyclopentyl (2S)-({4-[4-carbamoyl-5-(carbamoylamino)-2-thienyl]benzyl}amino)(2-naphthyl)acetate] | > 5 µM | > 5 µM
CC(C)C[C@H](NCCCOc1ccc(-c2cc(C(N)=O)c(NC(N)=O)s2)cc1)C(=O)OC1CCCC1 [Example 25, Cyclopentyl N-(3-{4-[4-carbamoyl-5-(carbamoylamino)-2-thienyl]phenoxy}propyl)-L-leucinate] | 1 to 5 µM | 1 to 5 µM
CC(C)C[C@H](NC/C=C/c1ccc(-c2cc(C(N)=O)c(NC(N)=O)s2)c(F)c1)C(=O)OC1CCCC1 [Example 34, Cyclopentyl N-[(2E)-3-{4-[4-carbamoyl-5-(carbamoylamino)thiophen-2-yl]-3-fluorophenyl}prop-2-en-1-yl]-L-leucinate] | 1 to 5 µM | < 1 µM
CC(C)C[C@H](NCCCOc1ccc(-c2cc(C(N)=O)c(NC(N)=O)s2)c(Cl)c1)C(=O)OC1CCCC1 [Example 26, Cyclopentyl N-(3-{4-[4-carbamoyl-5-(carbamoylamino)-2-thienyl]-3-chlorophenoxy}propyl)-L-leucinate] | 1 to 5 µM | 1 to 5 µM
Cc1cc(-c2cc(C(N)=O)c(NC(N)=O)s2)cc(C)c1/C=C/CN[C@@H](CC(C)C)C(=O)O [Example 80] | – | < 1 µM
CC(C)C[C@H](NC/C=C/c1ccc(-c2cc(C(N)=O)c(NC(N)=O)s2)c(Cl)c1)C(=O)OC1CCCC1 [Example 35, Cyclopentyl N-[(2E)-3-{4-[4-carbamoyl-5-(carbamoylamino)thiophen-2-yl]-3-chlorophenyl}prop-2-en-1-yl]-L-leucinate] | 1 to 5 µM | 1 to 5 µM
Cc1cc(-c2cc(C(N)=O)c(NC(N)=O)s2)ccc1/C=C/CN[C@@H](CC(C)C)C(=O)OC1CCCC1 [Example 30, Cyclopentyl N-[(2E)-3-{4-[4-carbamoyl-5-(carbamoylamino)thiophen-2-yl]-2-methylphenyl}prop-2-en-1-yl]-L-leucinate] | 1 to 5 µM | 1 to 5 µM
Cc1cc(-c2cc(C(N)=O)c(NC(N)=O)s2)ccc1CN[C@@H](CC(C)C)C(=O)OC1CCCC1 [Example 7, Cyclopentyl N-{-4-[4-carbamoyl-5-(carbamoylamino)-2-thienyl]-2-methylbenzyl}-L-leucinate] | 1 to 5 µM | < 1 µM

Further lines, results first:

IC50 (THP-1 cells) | IC50 (IKBKB (IKKβ)) | SMILES
– | < 1 µM | NC(=O)Nc1sc(-c2ccc(/C=C/CN[C@H](C(=O)O)C3CCCCC3)cc2)cc1C(N)=O [Example 83, (2S)-{[(2E)-3-{4-[4-carbamoyl-5-(carbamoylamino)thiophen-2-yl]phenyl}prop-2-en-1-yl]amino}(cyclohexyl)ethanoic acid]
– | < 1 µM | Cc1cc(-c2cc(C(N)=O)c(NC(N)=O)s2)ccc1/C=C/CN[C@@H](CC(C)C)C(=O)O [Example 70, N-[(2E)-3-{4-[4-carbamoyl-5-(carbamoylamino)thiophen-2-yl]-2-methylphenyl}prop-2-en-1-yl]-L-leucine]
– | < 1 µM | CC(C)C[C@H](NCCCOc1ccc(-c2cc(C(N)=O)c(NC(N)=O)s2)cc1)C(=O)O [Example 65, N-(3-{4-[4-Carbamoyl-5-(carbamoylamino)-2-thienyl]phenoxy}propyl)-L-leucine]
– | < 1 µM | NC(=O)Nc1sc(-c2cccc(CN[C@H](C(=O)O)c3ccccc3)c2)cc1C(N)=O [Example 58, (2S)-({3-[4-carbamoyl-5-(carbamoylamino)-2-thienyl]benzyl}amino)(phenyl)acetic acid]
– | < 1 µM | CC(C)C[C@H](NC/C=C/c1cc(F)c(-c2cc(C(N)=O)c(NC(N)=O)s2)cc1F)C(=O)O [Example 77, N-[(2E)-3-{4-[4-carbamoyl-5-(carbamoylamino)thiophen-2-yl]-2,5-difluorophenyl}prop-2-en-1-yl]-L-leucine]
– | < 1 µM | NC(=O)Nc1sc(-c2ccc(/C=C/CN[C@H](C(=O)O)c3ccccc3)cc2)cc1C(N)=O [Example 81, (2S)-{[(2E)-3-{4-[4-carbamoyl-5-(carbamoylamino)-2-thienyl]phenyl}prop-2-en-1-yl]amino}(phenyl)acetic acid]
– | < 1 µM | CC(C)C[C@H](NC/C=C/c1cccc(-c2cc(C(N)=O)c(NC(N)=O)s2)c1)C(=O)O [Example 93, N-[(2E)-3-{3-[4-carbamoyl-5-(carbamoylamino)-2-thienyl]phenyl}prop-2-en-1-yl]-L-leucine]
